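The compound was tested at five concentrations on cells cultured in 96-well plates, with a 48-hour exposure period. TGI: concentration producing complete growth inhibition.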 Bounds are passed on as bounds.

In PubChem BioAssay (NCI) one finds TGI data, which are given here for 8 compounds.

Some test systems named below: 786-0 renal; BT-549 breast; CCRF-CEM leukemia; EKVX NSCLC; HCC-2998 colon; HL-60(TB) leukemia; HOP-62 NSCLC; HT29 colon; KM12 colon; NCI-H460 lung; RPMI-8226 leukemia; SK-MEL-28 melanoma; SK-MEL-5 melanoma; SN12C renal; SNB-75 CNS; SR leukemia; UACC-257 melanoma; LOX IMVI melanoma; MDA-MB-435; MCF7 breast.
What all share (assay): growth of human tumour cells (NCI), 48 h

With `O=C(CC(=O)n1nc(-c2ccccc2)c(N=Nc2ccc(Cl)cc2)c1-c1ccccc1)Nc1cccc(Cl)c1`, the TGI in the test on 786-0 renal, in the test with BT-549 breast, in the test on CCRF-CEM leukemia, with EKVX NSCLC, with HCC-2998 colon and in the test on HL-60(TB) leukemia was greater than 100 µM each time. Moreover, the TGI with HOP-62 NSCLC, in the test on HT29 colon, with KM12 colon, in the test on NCI-H460 lung, in the test on RPMI-8226 leukemia and in the test with SK-MEL-28 melanoma was greater than 100 µM each time. Moreover, the TGI in the test on SK-MEL-5 melanoma, in the test with SN12C renal, in the test with SNB-75 CNS, in the test on SR leukemia and in the test on UACC-257 melanoma was greater than 100 µM throughout.
Turning to `Cn1c(=O)c2c(nc(NCCCCl)n2CC(=O)NCCCCl)n(C)c1=O`, the TGI with 786-0 renal, in the test with BT-549 breast, in the test with CCRF-CEM leukemia, in the test with EKVX NSCLC, in the test on HCC-2998 colon and with HL-60(TB) leukemia was greater than 100 µM in each case. Moreover, the TGI with HOP-62 NSCLC, with HT29 colon, with KM12 colon, in the test on LOX IMVI melanoma, in the test with MDA-MB-435 and with NCI-H460 lung was greater than 100 µM throughout. The TGI in the test on RPMI-8226 leukemia, in the test with SK-MEL-28 melanoma, with SK-MEL-5 melanoma, in the test on SN12C renal, in the test with SNB-75 CNS and with UACC-257 melanoma was greater than 100 µM throughout.
On to `C/C(=N\NC(=S)N1CC2CCC(CC2)C1)c1ccncn1`, for which the TGI with 786-0 renal amounted to 2.86 µM; with BT-549 breast, 3.54 µM; in the test on EKVX NSCLC, 4.21 µM; in the test on HL-60(TB) leukemia, 1.44 µM; in the test on HOP-62 NSCLC, 12.1 µM; in the test on HT29 colon, 5.5 µM. Moreover, the TGI with KM12 colon was 3.16 µM; with LOX IMVI melanoma, 3.1 µM; with MCF7 breast, 7.61 µM; in the test with MDA-MB-435, 5.9 µM; with NCI-H460 lung, 1.65 µM; in the test on SK-MEL-28 melanoma it was greater than 22.6 µM. Besides, the TGI with SK-MEL-5 melanoma was 0.833 µM; in the test on SN12C renal it was 5.16 µM; in the test on SNB-75 CNS, 3.4 µM; in the test on UACC-257 melanoma, 2.91 µM.
Take `O=C(c1ccc(Cl)cc1Cl)N(C(=O)N1CCCCC1)c1ccccc1`: the TGI in the test with 786-0 renal, in the test on BT-549 breast, in the test on CCRF-CEM leukemia, in the test with EKVX NSCLC, in the test with HL-60(TB) leukemia and with HT29 colon was greater than 100 µM each time. In addition, the TGI in the test on KM12 colon, with LOX IMVI melanoma, in the test on MCF7 breast, in the test with MDA-MB-435, in the test on RPMI-8226 leukemia and in the test with SK-MEL-28 melanoma was greater than 100 µM throughout. Besides, the TGI in the test on SK-MEL-5 melanoma, in the test with SN12C renal and in the test with UACC-257 melanoma was greater than 100 µM each time.
Consider `CN1CCC(OC(=O)Oc2ccccc2)(c2ccccc2)CC1`, for which the TGI was greater than 100 µM with 786-0 renal; 55.1 µM in the test on CCRF-CEM leukemia; 79.5 µM in the test on EKVX NSCLC; 38.3 µM in the test with HCC-2998 colon; 36.6 µM with HL-60(TB) leukemia; 40.6 µM with HOP-62 NSCLC. For the same compound, the TGI in the test with HT29 colon was 26 µM; with KM12 colon it was 37.5 µM; with LOX IMVI melanoma, 34 µM; in the test with MCF7 breast, 35.1 µM; in the test on MDA-MB-435 it was 33.7 µM; with NCI-H460 lung, 39.3 µM. Besides, the TGI in the test with RPMI-8226 leukemia was 35.7 µM; with SK-MEL-28 melanoma, 41.7 µM; in the test on SK-MEL-5 melanoma, 34.2 µM; in the test on SN12C renal, 43.8 µM; in the test on SNB-75 CNS, 63.3 µM; in the test with SR leukemia, 42.6 µM. In addition, the TGI in the test on UACC-257 melanoma amounted to 34 µM.
Consider `Cc1oc2nc(N(C)C)nc(Cl)c2c1C`, for which the TGI with 786-0 renal, in the test with BT-549 breast, with CCRF-CEM leukemia, with EKVX NSCLC, with HCC-2998 colon and in the test with HL-60(TB) leukemia was greater than 100 µM throughout. Further, the TGI with HOP-62 NSCLC, in the test on HT29 colon, in the test with KM12 colon, in the test on MDA-MB-435, in the test with NCI-H460 lung and in the test with RPMI-8226 leukemia was greater than 100 µM each time. Also, the TGI with SK-MEL-28 melanoma, with SK-MEL-5 melanoma, with SN12C renal, with SNB-75 CNS and in the test on UACC-257 melanoma was greater than 100 µM in each case.
Regarding `O=C1NNC(=O)C2C3c4ccccc4C(c4ccccc43)C12` (centres undefined), the TGI in the test on 786-0 renal, in the test with BT-549 breast, with CCRF-CEM leukemia, in the test with EKVX NSCLC, in the test with HCC-2998 colon and in the test on HL-60(TB) leukemia was greater than 100 µM each time. Further, the TGI with HOP-62 NSCLC, in the test on HT29 colon, in the test with KM12 colon, in the test with LOX IMVI melanoma, with MCF7 breast and with NCI-H460 lung was greater than 100 µM in each case. Further, the TGI with RPMI-8226 leukemia, in the test on SK-MEL-28 melanoma, in the test on SK-MEL-5 melanoma, with SN12C renal, in the test with SNB-75 CNS and in the test on SR leukemia was greater than 100 µM each time. The TGI with UACC-257 melanoma was greater than 100 µM.
As for `CCN(CC)Cc1cc(Nc2ccnc3ccc4c(nnn4C)c23)ccc1O`, the TGI was 20.8 µM in the test with 786-0 renal; 37.1 µM in the test on BT-549 breast; 35.7 µM in the test on CCRF-CEM leukemia; greater than 100 µM with EKVX NSCLC; 10.7 µM in the test on HCC-2998 colon; 50.6 µM in the test with HL-60(TB) leukemia. For the same compound, the TGI was 19 µM in the test on HOP-62 NSCLC; greater than 100 µM with HT29 colon; 39.7 µM in the test on KM12 colon; 29.9 µM in the test with LOX IMVI melanoma; 16.7 µM with MCF7 breast; 14.2 µM with NCI-H460 lung. In addition, the TGI with SK-MEL-28 melanoma stood at 17.8 µM; in the test with SK-MEL-5 melanoma it was 29.9 µM; with SN12C renal, 31.8 µM; with SNB-75 CNS, 19.9 µM; in the test on SR leukemia, 18.6 µM; with UACC-257 melanoma, 28.8 µM.
